Test [1] concerns the target T1, P2X7 (Homo sapiens (Human), UniProt Q99572). In words: Ca2+ flux (FLIPR) in 1321N1 cells expressing recombinant human P2X7 channel. The format is cell-based. The conditions noted are these: 250 μM BzATP. On the procedure: (§1) (A) Ca^2+ Flux: 1321N1 cells expressing the recombinant human, rat or mouse P2X7 channel was cultured in HyQ DME/(HyClone/Dulbecco's Modified Eagle Medium) high glucose supplemented with 10% Fetal Bovine Serum (FBS) and appropriate selection marker. Cells were seeded at a density of 25000 cells/well (96-well clear bottom black walled plates) in 100 μl volume/well. On the day of the experiment, cell plates were washed with assay buffer, containing (in mM): 130 NaCl, 2 KCl, 1 CaCl2, 1 MgCl2, 10 HEPES, 5 glucose; pH 7.40 and 300 mOs. After the wash, cells were loaded with the Calcium-4 dye (Molecular Device) and incubated in the dark for 60 minutes. Test compounds were prepared at 250× the test concentration in neat DMSO. Intermediate 96-well compound plates were prepared by transferring 1.2 μL of the compound into 300 μL of assay buffer. A further 3× dilution occurred when transferring 50 μL/well of the compound plate to 100 μL/well in the cell plate. Cells were incubated with test compounds and dye for 30 minutes. […] The fluorescence change was measured 180 seconds after adding the agonist.
Background: A change in cytosolic calcium serves as a functional read-out for many receptors and channels.

In a further test the target is rat P2X7 (Rattus norvegicus (Rat), UniProt Q64663). In words: Ca2+ flux (FLIPR) in 1321N1 cells expressing recombinant rat P2X7 channel. In kind it is cell-based. The conditions noted are these: 250 μM BzATP. On the procedure:
as §1

The target in test [2] is T1, P2X7. In words: Radioligand binding, human P2X7-1321N1 cell membranes, tritiated A-804598 tracer. The conditions noted are these: 1 hour at 4° C. On the procedure: (B) Radioligand binding: human or rat P2X7-1321N1 cells were collected and frozen @ −80° C. On the day of the experiment, cell membrane preparations were made according to standard published methods. […] The compound can be prepared as described in the literature. […] The assay was terminated by filtration (GF/B filters pre-soaked with 0.3% PEI) and washed with washing buffer (Tris-HCl 50 mM). The IC50 generated in the binding assay was corrected for tracer concentration and affinity of the tracer to derive at the affinity (Ki) of the test compounds.

Broadly, the IC50 is the concentration needed to halve the response being measured. The term Ki denotes a measure of affinity in units of concentration, obtained from inhibition or displacement. Low readings indicate a stronger hold on the target, high ones a looser hold on the target.

rat P2X7, sequence (Q64663 whole entry): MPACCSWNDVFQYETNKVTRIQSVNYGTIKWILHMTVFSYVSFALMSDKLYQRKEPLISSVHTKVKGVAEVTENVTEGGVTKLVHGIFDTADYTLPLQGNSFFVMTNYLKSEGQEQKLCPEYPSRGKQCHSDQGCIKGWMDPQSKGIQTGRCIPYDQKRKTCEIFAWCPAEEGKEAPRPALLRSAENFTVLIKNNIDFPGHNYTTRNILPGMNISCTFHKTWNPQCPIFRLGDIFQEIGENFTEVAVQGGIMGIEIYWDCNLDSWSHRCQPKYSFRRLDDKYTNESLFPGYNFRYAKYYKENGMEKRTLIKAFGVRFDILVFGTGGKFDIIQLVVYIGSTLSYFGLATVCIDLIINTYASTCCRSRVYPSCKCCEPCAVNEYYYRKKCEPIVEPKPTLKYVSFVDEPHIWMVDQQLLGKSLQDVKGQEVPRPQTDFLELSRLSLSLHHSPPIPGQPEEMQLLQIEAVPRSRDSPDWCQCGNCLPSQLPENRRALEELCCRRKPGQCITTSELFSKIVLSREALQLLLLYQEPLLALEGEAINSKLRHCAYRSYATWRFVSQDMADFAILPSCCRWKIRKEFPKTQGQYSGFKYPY
T1 sequence (Q99572 whole entry): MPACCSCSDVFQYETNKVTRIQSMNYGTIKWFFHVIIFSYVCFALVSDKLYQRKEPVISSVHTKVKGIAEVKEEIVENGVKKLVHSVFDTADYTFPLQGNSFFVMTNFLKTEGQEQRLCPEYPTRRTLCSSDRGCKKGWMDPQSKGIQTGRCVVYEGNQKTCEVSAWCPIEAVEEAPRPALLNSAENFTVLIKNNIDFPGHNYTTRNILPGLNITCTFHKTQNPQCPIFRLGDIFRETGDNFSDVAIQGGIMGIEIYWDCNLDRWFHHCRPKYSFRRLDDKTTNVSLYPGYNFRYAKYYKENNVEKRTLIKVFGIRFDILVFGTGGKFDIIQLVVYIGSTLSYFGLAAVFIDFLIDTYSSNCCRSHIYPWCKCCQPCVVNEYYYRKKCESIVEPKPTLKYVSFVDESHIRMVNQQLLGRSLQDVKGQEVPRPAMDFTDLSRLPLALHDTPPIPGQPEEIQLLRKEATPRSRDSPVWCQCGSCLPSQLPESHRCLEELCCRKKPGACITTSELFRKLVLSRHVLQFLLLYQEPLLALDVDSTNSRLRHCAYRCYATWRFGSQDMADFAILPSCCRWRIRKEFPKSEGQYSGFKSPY

In the case of `C[C@H]1Cn2c(nnc2-c2cnccn2)C(=O)N1Cc1cc(N)ccc1Cl` [Example 91, (6S)-7-(5-Amino-2-chlorobenzyl)-6-methyl-3-pyrazin-2-yl-6,7-dihydro[1,2,4]triazolo[4,3-a]pyrazin-8(5H)-one], the IC50 at P2X7 [1] is 1220 nM; on rat P2X7 it was 18900 nM.

With `CC(c1cccc(C(F)(F)F)c1Cl)N1CCn2c(nnc2-c2cnccn2)C1=O` (racemic) [Example 4, (±)7-{1-[2-Chloro-3-(trifluoromethyl)phenyl]ethyl}-3-pyrazin-2-yl-6,7-dihydro[1,2,4]triazolo[4,3-a]pyrazin-8(5H)-one], the IC50 at P2X7 [1] is 2690 nM; at rat P2X7, over 10000 nM.

Take `C[C@H]1Cn2c(nnc2-c2cnccn2)C(=O)N1Cc1c(Cl)cccc1Cl` [Example 86, (6S)-7-(2,6-Dichlorobenzyl)-6-methyl-3-pyrazin-2-yl-6,7-dihydro[1,2,4]triazolo[4,3-a]pyrazin-8(5H)-one]: the IC50 on rat P2X7 stood at 1370 nM.

The compound `C[C@H]1Cn2c(nnc2-c2ncc(Br)cn2)C(=O)N1Cc1cccc(C(F)(F)F)c1Cl` [Example 42, (6S)-3-(5-Bromopyrimidin-2-yl)-7-[2-chloro-3-(trifluoromethyl)benzyl]-6-methyl-6,7-dihydro[1,2,4]triazolo[4,3-a]pyrazin-8(5H)-one] registered a Ki on P2X7 [2] of 7.9 nM. The IC50 at P2X7 [1] was 17.5 nM; on rat P2X7, over 10000 nM.

Regarding `C[C@H]1Cn2c(nnc2-c2cnccn2)C(=O)N1Cc1cccc(C(F)(F)F)c1` [Example 88, (6S)-6-Methyl-3-pyrazin-2-yl-7-[3-(trifluoromethyl)benzyl]-6,7-dihydro[1,2,4]triazolo[4,3-a]pyrazin-8(5H)-one], at P2X7 [2], the affinity corresponds to a Ki of 5 nM. The IC50 at P2X7 [1] is 4 nM; at rat P2X7, 6040 nM.

Take `C[C@H]1Cn2c(nnc2C2CC2)C(=O)N1Cc1cccc(C(F)(F)F)c1Cl` [Example 50, (6S)-7-[2-Chloro-3-(trifluoromethyl)benzyl]-3-cyclopropyl-6-methyl-6,7-dihydro[1,2,4]triazolo[4,3-a]pyrazin-8(5H)-one]: the IC50 on P2X7 [1] is 371 nM; at rat P2X7, over 10000 nM.

As to `C[C@H]1Cn2c(nnc2-c2ncc(F)cn2)C(=O)N1Cc1cccc(C(F)(F)F)c1Cl` [Example 34, (6S)-7-[2-Chloro-3-(trifluoromethyl)benzyl]-3-(5-fluoropyrimidin-2-yl)-6-methyl-6,7-dihydro[1,2,4]triazolo[4,3-a]pyrazin-8(5H)-one], the IC50 at P2X7 [1] was determined as 1 nM.

As for `C[C@H]1Cn2c(nnc2-c2nccs2)C(=O)N1Cc1cccc(C(F)(F)F)c1Cl` [Example 31, (6S)-7-[2-Chloro-3-(trifluoromethyl)benzyl]-6-methyl-3-(1,3-thiazol-2-yl)-6,7-dihydro[1,2,4]triazolo[4,3-a]pyrazin-8(5H)-one], the affinity at P2X7 [2], expressed as Ki, was 4 nM. In addition, the IC50 on P2X7 [1] turned out to be 1.2 nM; at rat P2X7, 135 nM.

Take `Cc1ncccc1-c1nnc2n1C[C@H](C)N(Cc1cccc(C(F)(F)F)c1Cl)C2=O` [Example 48, (6S)-7-[2-Chloro-3-(trifluoromethyl)benzyl]-6-methyl-3-(2-methylpyridin-3-yl)-6,7-dihydro[1,2,4]triazolo[4,3-a]pyrazin-8(5H)-one]: at P2X7 [2], the Ki worked out at 12.6 nM. For the same compound, the IC50 at P2X7 [1] was 13.2 nM; on rat P2X7, 543 nM.

Turning to `O=C1c2nnc(-c3cnccn3)n2CCN1Cc1cccc(F)c1F` [Example 6, 7-(2,3-Difluorobenzyl)-3-pyrazin-2-yl-6,7-dihydro[1,2,4]triazolo[4,3-a]pyrazin-8(5H)-one], on rat P2X7, the IC50 is over 10000 nM.

`C[C@H]1Cn2c(nnc2-c2cn[nH]c2)C(=O)N1Cc1cccc(C(F)(F)F)c1Cl` [Example 25, (6S)-7-[2-Chloro-3-(trifluoromethyl)benzyl]-6-methyl-3-(1H-pyrazol-4-yl)-6,7-dihydro[1,2,4]triazolo[4,3-a]pyrazin-8(5H)-one]: the Ki at P2X7 [2] was determined as 25.1 nM. Also, the IC50 worked out at 96.6 nM on P2X7 [1] and 3150 nM on rat P2X7.

`C[C@H]1Cn2c(nnc2-c2cnccn2)C(=O)N1Cc1cc([N+](=O)[O-])ccc1Cl` [Example 90, (6S)-7-(2-Chloro-5-nitrobenzyl)-6-methyl-3-pyrazin-2-yl-6,7-dihydro[1,2,4]triazolo[4,3-a]pyrazin-8(5H)-one]: the IC50 was found to be 1000 nM on P2X7 [1] and 20000 nM on rat P2X7.

For `Cc1cccc(-c2nnc3n2C[C@H](C)N(Cc2cccc(C(F)(F)F)c2Cl)C3=O)n1` [Example 46, (6S)-7-[2-Chloro-3-(trifluoromethyl)benzyl]-6-methyl-3-(6-methylpyridin-2-yl)-6,7-dihydro[1,2,4]triazolo[4,3-a]pyrazin-8(5H)-one], the Ki on P2X7 [2] was found to be 12.6 nM. The IC50 was determined as 3.3 nM on P2X7 [1] and 154 nM on rat P2X7.

Take `C[C@H]1Cn2c(nnc2-c2cnccn2)C(=O)N1Cc1ccccc1OC(F)(F)F` [Example 83, (6S)-6-Methyl-3-pyrazin-2-yl-7-[2-(trifluoromethoxy)benzyl]-6,7-dihydro[1,2,4]triazolo[4,3-a]pyrazin-8(5H)-one]: the IC50 on P2X7 [1] is 822 nM; on rat P2X7, 11100 nM.

Take `C[C@H]1Cn2c(nnc2-c2cnccn2)C(=O)N1Cc1ccccc1` [Example 79, (6S)-7-Benzyl-6-methyl-3-pyrazin-2-yl-6,7-dihydro[1,2,4]triazolo[4,3-a]pyrazin-8(5H)-one]: the IC50 on rat P2X7 was over 10000 nM.

For the compound `O=C1c2nnc(-c3cnccn3)n2CCN1Cc1c(Cl)cccc1Cl` [Example 5, 7-(2,6-Dichlorobenzyl)-3-pyrazin-2-yl-6,7-dihydro[1,2,4]triazolo[4,3-a]pyrazin-8(5H)-one], the IC50 at P2X7 [1] amounted to 942 nM; at rat P2X7, 2560 nM.

In the case of `CS(=O)(=O)c1cc(Cl)ccc1CN1CCn2c(nnc2-c2cnccn2)C1=O` [Example 7, 7-[4-Chloro-2-(methylsulfonyl)benzyl]-3-pyrazin-2-yl-6,7-dihydro[1,2,4]triazolo[4,3-a]pyrazin-8(5H)-one], the IC50 at P2X7 [1] was 3400 nM; at rat P2X7, over 10000 nM.

Turning to `C[C@H]1Cn2c(nnc2C2CCOCC2)C(=O)N1Cc1cccc(C(F)(F)F)c1Cl` [Example 53, (6S)-7-[2-Chloro-3-(trifluoromethyl)benzyl]-6-methyl-3-(tetrahydro-2H-pyran-4-yl)-6,7-dihydro[1,2,4]triazolo[4,3-a]pyrazin-8(5H)-one], at rat P2X7, the IC50 is over 10000 nM.

For `C[C@H]1Cn2c(nnc2C2CCCCC2)C(=O)N1Cc1cccc(C(F)(F)F)c1Cl` [Example 51, (6S)-7-[2-Chloro-3-(trifluoromethyl)benzyl]-3-cyclohexyl-6-methyl-6,7-dihydro[1,2,4]triazolo[4,3-a]pyrazin-8(5H)-one], the results for the IC50 on P2X7 [1] and on rat P2X7 were 766 nM and over 10000 nM, respectively.

For `C[C@H]1Cn2c(nnc2-c2cnccn2)C(=O)N1Cc1cc2c(cc1Cl)OCO2` [Example 84, (6S)-7-[(6-Chloro-1,3-benzodioxol-5-yl)methyl]-6-methyl-3-pyrazin-2-yl-6,7-dihydro[1,2,4]triazolo[4,3-a]pyrazin-8(5H)-one], the IC50 on P2X7 [1] is 340 nM; on rat P2X7, over 10000 nM.

As for `C[C@H]1Cn2c(nnc2-c2csc(C(F)(F)F)n2)C(=O)N1Cc1cccc(C(F)(F)F)c1Cl` [Example 38, (6S)-7-[2-Chloro-3-(trifluoromethyl)benzyl]-6-methyl-3-[2-(trifluoromethyl)-1,3-thiazol-4-yl]-6,7-dihydro[1,2,4]triazolo[4,3-a]pyrazin-8(5H)-one], the IC50 on P2X7 [1] was determined as 977 nM; on rat P2X7, 2610 nM.

Take `C[C@H]1Cn2c(nnc2C2CCC2)C(=O)N1Cc1cccc(C(F)(F)F)c1Cl` [Example 49, (6S)-7-[2-Chloro-3-(trifluoromethyl)benzyl]-3-cyclobutyl-6-methyl-6,7-dihydro[1,2,4]triazolo[4,3-a]pyrazin-8(5H)-one]: the IC50 on P2X7 [1] was 386 nM; on rat P2X7 it was 13200 nM.

Take `C[C@H]1Cn2c(nnc2-c2cnccn2)C(=O)N1Cc1ccccc1[N+](=O)[O-]` [Example 89, (6S)-6-Methyl-7-(2-nitrobenzyl)-3-pyrazin-2-yl-6,7-dihydro[1,2,4]triazolo[4,3-a]pyrazin-8(5H)-one]: the values for the IC50 on P2X7 [1] and on rat P2X7 were 26.4 nM and 7280 nM, respectively.

As to `C[C@H]1Cn2c(nnc2-c2cnccn2)C(=O)N1Cc1ccccc1Cl` [Example 80, (6S)-7-(2-Chlorobenzyl)-6-methyl-3-pyrazin-2-yl-6,7-dihydro[1,2,4]triazolo[4,3-a]pyrazin-8(5H)-one], on rat P2X7, the IC50 is 41400 nM.

On to `C[C@H]1Cn2c(nnc2-c2cccnn2)C(=O)N1Cc1cccc(C(F)(F)F)c1Cl` [Example 44, (6S)-7-[2-Chloro-3-(trifluoromethyl)benzyl]-6-methyl-3-pyridazin-3-yl-6,7-dihydro[1,2,4]triazolo[4,3-a]pyrazin-8(5H)-one], for which the IC50 is 177 nM at P2X7 [1] and 19900 nM at rat P2X7.

The record behind these values is patent US9040534B2, “[1,2,4]triazolo[4,3-a]pyrazines as P2X7 modulators” (Janssen Pharmaceutica NV, priority 2013, dated 2015).
